± gives the standard deviation of the averaged measurements.
Columns and labels:
Test in all cases: level (log10 ratio to DMSO vehicle control); higher = higher biomarker level / cell amount than vehicle control
[1] = compound: C=C(C)C(=O)OCCC(F)(F)C(F)(F)C(F)(F)C(F)(F)C(F)(F)C(F)(F)F [6:2 Fluorotelomer methacrylate]; details: in DMSO
Description: (§1)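 BioMAP Diversity Plus panel of 12 human primary cell co-culture systems (3C, 4H, LPS, SAg, BT, BF4T, BE3C, CASM3C, HDF3CGF, KF3CT, MyoF, Mphg). Compounds were added 1 h before stimulation and left for 24 h (MyoF 48 h; BT 72 h for soluble read-outs or 6 d for IgG). Biomarkers were read by ELISA, cytotoxicity by SRB, PBMC viability and proliferation by Alamar Blue. Each well value was divided by the mean of 8 DMSO control wells on the same plate and log10 transformed; duplicate blinded samples were tested at 4 concentrations.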

[2] = compound: C=CC(=O)OCC(F)(F)C(F)(F)C(F)(F)COC(=O)C=C [1H,1H,5H,5H-Perfluoro-1,5-pentanediol diacrylate]; details: 6700 nM; in DMSO
Description: as §1

[3] = compound: COC(=O)C(F)(F)C(F)(F)OC(F)(C(F)(F)F)C(F)(F)OC(F)=C(F)F [Methyl perfluoro(3-(1-ethenyloxypropan-2-yloxy)propanoate)]; details: in DMSO
Description: as §1

[4] = compound: FC(F)(F)C(F)(F)C(F)(F)C(F)(F)C(F)(F)C(F)(F)C(F)(F)I [1-Iodopentadecafluoroheptane]; details: in DMSO
Description: as §1

[5] = compound: FC(F)(F)C(F)(F)C(F)(F)C(F)(F)C(F)(F)C(F)(F)CC1CO1 [3-(Perfluorohexyl)-1,2-epoxypropane]; details: in DMSO
Description: as §1

[6] = compound: FC(F)(F)C(F)(F)C(F)(F)CC1CO1 [1H,1H-Heptafluorobutyl epoxide]; details: in DMSO
Description: as §1

[7] = compound: FC(F)(F)C(F)(F)C(F)(F)CI [Heptafluorobutyl iodide]; details: in DMSO
Description: as §1

[8] = compound: FC(F)(F)C(F)(F)CNCC(F)(F)C(F)(F)F [Bis(1H,1H-perfluoropropyl)amine]; details: in DMSO
Description: as §1

[9] = compound: NC(=O)C(F)(F)C(F)(F)C(F)(F)C(F)(F)C(N)=O [Octafluoroadipamide]; details: in DMSO
Description: as §1

[10] = compound: NC(=O)C(F)(F)C(F)(F)C(F)(F)C(F)(F)F [Nonafluoropentanamide]; details: in DMSO
Description: as §1

[11] = compound: NC(=O)C(F)(F)C(F)(F)C(F)(F)C(F)F; details: in DMSO
Description: as §1

[12] = compound: NS(=O)(=O)C(F)(F)C(F)(F)C(F)(F)C(F)(F)C(F)(F)C(F)(F)F [Perfluorohexanesulfonamide]; details: in DMSO
Description: as §1

[13] = compound: O=C(O)C(F)(F)C(F)(F)C(F)(F)C(F)(F)C(F)(F)C(F)(F)C(F)(F)C(F)(F)C(F)(F)C(F)F [11-H-Perfluoroundecanoic acid]; details: in DMSO
Description: as §1

[14] = compound: O=C(O)C=CC(F)(C(F)(F)F)C(F)(F)F [3-(Perfluoroisopropyl)-2-propenoic acid]; details: in DMSO
Description: as §1

[15] = compound: O=S(=O)(Cl)C(F)(F)C(F)(F)C(F)(F)C(F)(F)C(F)(F)C(F)(F)C(F)(F)C(F)(F)F [Perfluoro-1-octanesulfonyl chloride]; details: in DMSO
Description: as §1

[16] = compound: O=S(=O)(F)C(F)(F)C(F)(F)C(F)(F)C(F)(F)C(F)(F)C(F)(F)C(F)(F)C(F)(F)F [Perfluorooctanesulfonyl fluoride]; details: in DMSO
Description: as §1

[17] = compound: O=S(=O)(O)C(F)(F)C(F)(F)C(F)(F)C(F)(F)C(F)(F)C(F)(F)C(F)(F)C(F)(F)C(F)(F)C(F)(F)F [Sodium perfluorodecanesulfonate]; details: in DMSO
Description: as §1

[18] = compound: O=S(=O)(O)CCC(F)(F)C(F)(F)C(F)(F)C(F)(F)C(F)(F)C(F)(F)F [6:2 Fluorotelomer sulfonic acid]; details: in DMSO
Description: as §1

[19] = compound: OCC(F)(F)C(F)(F)C(F)(F)CO [Hexafluoroamylene glycol]; details: in DMSO
Description: as §1

BE3C:IL-1alpha
level (log10) ([1]; 6700 nM): 0.0025 ± 0.016
level (log10) ([1]; 20000 nM): -0.0125 ± 0.0035
level (log10) ([1]; 60000 nM): 0.003
level (log10) [2]: -0.0415 ± 0.03
level (log10) ([3]; 6700 nM): -0.0175 ± 0.005
level (log10) ([3]; 20000 nM): -0.005 ± 0.011
level (log10) ([4]; 6700 nM): -0.0175 ± 0.005
level (log10) ([4]; 20000 nM): -0.0185 ± 0.0021
level (log10) ([5]; 6700 nM): -0.0215 ± 0.0021
level (log10) ([5]; 20000 nM): -0.003
level (log10) ([5]; 60000 nM): 0 ± 0.0014
level (log10) ([6]; 6700 nM): 0.024 ± 0.024
level (log10) ([6]; 20000 nM): 0.01 ± 0.051
level (log10) ([6]; 60000 nM): 0.0265 ± 0.066
level (log10) ([7]; 6700 nM): 0.0015 ± 0.037
level (log10) ([7]; 20000 nM): -0.0225 ± 0.019
level (log10) ([7]; 60000 nM): -0.001 ± 0.014
level (log10) ([8]; 6700 nM): 0.0045 ± 0.022
level (log10) ([8]; 20000 nM): 0.0005 ± 0.018
level (log10) ([8]; 60000 nM): 0.007 ± 0.018
level (log10) ([9]; 6700 nM): 0.0085 ± 0.012
level (log10) ([9]; 20000 nM): -0.0105 ± 0.0064
level (log10) ([9]; 60000 nM): 0.0145 ± 0.033
level (log10) ([10]; 6700 nM): -0.002 ± 0.0071
level (log10) ([10]; 20000 nM): 0.002 ± 0.014
level (log10) ([10]; 60000 nM): 0.0105 ± 0.00071
level (log10) ([11]; 6700 nM): 0.0235 ± 0.016
level (log10) ([11]; 20000 nM): -0.008 ± 0.0085
level (log10) ([11]; 60000 nM): 0.015 ± 0.065
level (log10) ([12]; 6700 nM): -0.0195 ± 0.00071
level (log10) ([12]; 20000 nM): -0.022 ± 0.013
level (log10) ([12]; 60000 nM): -0.0885 ± 0.016
level (log10) ([13]; 6700 nM): 0.0285 ± 0.016
level (log10) ([13]; 20000 nM): -0.42 ± 0.011
level (log10) ([14]; 6700 nM): -0.001 ± 0.031
level (log10) ([14]; 20000 nM): -0.0065 ± 0.0064
level (log10) ([14]; 60000 nM): 0.0025 ± 0.005
level (log10) ([15]; 6700 nM): 0.015 ± 0.0042
level (log10) ([15]; 20000 nM): 0.0155 ± 0.0092
level (log10) ([15]; 60000 nM): -0.523 ± 0.1
level (log10) ([16]; 6700 nM): 0.004 ± 0.0042
level (log10) ([16]; 20000 nM): -0.0115 ± 0.013
level (log10) ([16]; 60000 nM): -0.007 ± 0.016
level (log10) ([17]; 1500 nM): -0.007 ± 0.0085
level (log10) ([17]; 4400 nM): 0.007 ± 0.023
level (log10) ([17]; 13000 nM): -0.0495 ± 0.0078
level (log10) ([17]; 40000 nM): -0.149 ± 0.0092
level (log10) ([18]; 6700 nM): -0.0095 ± 0.021
level (log10) ([18]; 20000 nM): -0.005 ± 0.0099
level (log10) ([18]; 60000 nM): -0.0005 ± 0.0078
level (log10) ([19]; 6700 nM): -0.002 ± 0.0085
level (log10) ([19]; 20000 nM): 0.002
level (log10) ([19]; 60000 nM): 0.0135 ± 0.0092

BE3C:tPA
level (log10) ([1]; 6700 nM): -0.0525 ± 0.036
level (log10) ([1]; 20000 nM): -0.053 ± 0.018
level (log10) ([1]; 60000 nM): -0.056 ± 0.013
level (log10) [2]: -0.0565 ± 0.033
level (log10) ([3]; 6700 nM): -0.114 ± 0.033
level (log10) ([3]; 20000 nM): -0.142 ± 0.018
level (log10) ([4]; 6700 nM): -0.006 ± 0.0042
level (log10) ([4]; 20000 nM): 0.0075 ± 0.022
level (log10) ([5]; 6700 nM): 0.0085 ± 0.019
level (log10) ([5]; 20000 nM): -0.014 ± 0.014
level (log10) ([5]; 60000 nM): 0.0325 ± 0.018
level (log10) ([6]; 6700 nM): -0.0115 ± 0.06
level (log10) ([6]; 20000 nM): -0.0245 ± 0.03
level (log10) ([6]; 60000 nM): -0.0375 ± 0.026
level (log10) ([7]; 6700 nM): -0.0095 ± 0.029
level (log10) ([7]; 20000 nM): -0.024 ± 0.011
level (log10) ([7]; 60000 nM): 0.015 ± 0.044
level (log10) ([8]; 6700 nM): -0.0285 ± 0.0021
level (log10) ([8]; 20000 nM): -0.0685 ± 0.011
level (log10) ([8]; 60000 nM): -0.0225 ± 0.036
level (log10) ([9]; 6700 nM): -0.0485 ± 0.00071
level (log10) ([9]; 20000 nM): -0.0395 ± 0.037
level (log10) ([9]; 60000 nM): -0.011 ± 0.052
level (log10) ([10]; 6700 nM): 0.003 ± 0.0085
level (log10) ([10]; 20000 nM): 0.008 ± 0.017
level (log10) ([10]; 60000 nM): 0.0095 ± 0.012
level (log10) ([11]; 6700 nM): -0.008 ± 0.0028
level (log10) ([11]; 20000 nM): -0.0275 ± 0.016
level (log10) ([11]; 60000 nM): -0.0235 ± 0.0021
level (log10) ([12]; 6700 nM): -0.0075 ± 0.035
level (log10) ([12]; 20000 nM): 0.0005 ± 0.016
level (log10) ([12]; 60000 nM): -0.245 ± 0.059
level (log10) ([13]; 6700 nM): 0.036 ± 0.058
level (log10) ([13]; 20000 nM): -0.338 ± 0.018
level (log10) ([14]; 6700 nM): -0.004 ± 0.045
level (log10) ([14]; 20000 nM): -0.0215 ± 0.042
level (log10) ([14]; 60000 nM): 0.022 ± 0.0071
level (log10) ([15]; 6700 nM): 0.01 ± 0.047
level (log10) ([15]; 20000 nM): 0 ± 0.04
level (log10) ([15]; 60000 nM): -0.359 ± 0.11
level (log10) ([16]; 6700 nM): -0.045 ± 0.075
level (log10) ([16]; 20000 nM): -0.027 ± 0.034
level (log10) ([16]; 60000 nM): -0.027 ± 0.027
level (log10) ([17]; 1500 nM): 0.12 ± 0.017
level (log10) ([17]; 4400 nM): 0.186 ± 0.0028
level (log10) ([17]; 13000 nM): 0.191 ± 0.013
level (log10) ([17]; 40000 nM): -0.103 ± 0.0057
level (log10) ([18]; 6700 nM): -0.0025 ± 0.016
level (log10) ([18]; 20000 nM): 0.029 ± 0.02
level (log10) ([18]; 60000 nM): 0.05 ± 0.025
level (log10) ([19]; 6700 nM): -0.0205 ± 0.00071
level (log10) ([19]; 20000 nM): -0.02 ± 0.0057
level (log10) ([19]; 60000 nM): 0.011 ± 0.031

— the supplement of paper PMC10331698
